Measured values from patent US10667515B2, “(S)-5-ethynyl-anabasine, derivatives thereof, and related compositions and methods of making and using” (priority 2016, dated 2020).
“Also recorded” adds a separate entry of the source. Where a name gives a salt, the structure may show the parent alone. Read-outs that look alike come from different tables or passages of the source.

Experiments:
Asu-ACR-16 [1] = biological target: T1, Asu-ACR-16 (Ascaris suum (Pig roundworm) (Ascaris lumbricoides), UniProt F1KYJ9); assay: Two-electrode voltage clamp inhibition of the ACh response of Asu-ACR-16 expressed in Xenopus laevis oocytes; format: cell-based
T1 sequence (F1KYJ9 1-504): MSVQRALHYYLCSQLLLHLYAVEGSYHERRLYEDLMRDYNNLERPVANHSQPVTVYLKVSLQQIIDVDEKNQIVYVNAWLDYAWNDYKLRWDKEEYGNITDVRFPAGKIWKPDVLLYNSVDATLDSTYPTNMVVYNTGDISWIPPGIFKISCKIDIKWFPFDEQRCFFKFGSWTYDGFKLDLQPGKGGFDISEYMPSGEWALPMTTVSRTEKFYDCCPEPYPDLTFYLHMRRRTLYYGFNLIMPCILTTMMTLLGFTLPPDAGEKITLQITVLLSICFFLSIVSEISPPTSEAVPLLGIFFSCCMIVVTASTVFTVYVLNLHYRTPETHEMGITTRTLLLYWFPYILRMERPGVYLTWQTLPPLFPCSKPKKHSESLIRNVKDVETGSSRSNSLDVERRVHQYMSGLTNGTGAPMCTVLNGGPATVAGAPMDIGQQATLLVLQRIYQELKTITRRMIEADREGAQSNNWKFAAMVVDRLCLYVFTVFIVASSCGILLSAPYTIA

Asu-ACR-16 [2] = biological target: T1, Asu-ACR-16; assay: cell-based; format: cell-based; conditions: for Emax: read-out: maximum response (Imax); for maximum response (Imax): normalized to peak current of 100 μM ACh
Method: Full-length Asu-acr-16 cRNA and ancillary gene Asu-ric-3 cRNA (UniProtKB Accession No. F1L1D9) were prepared as previously described (Zheng et al. (2016), supra). A cRNA mixture of 25 ng Asu-acr-16 and 5 ng Asu-ric-3 cRNA in 50 nL RNAse-free water was injected into de-folliculated Xenopus laevis oocytes (Ecocyte Bioscience, Austin, Tex., USA). The injected oocytes were incubated in an incubation solution (100 mM NaCl, 2 mM KCl, 1.8 mM CaCl2.2H2O, 1 mM MgCl2.6H20, 5 mM HEPES, 2.5 mM Na-pyruvate, 100 U/mL penicillin, and 100 μg/mL streptomycin, pH 7.5) at 19° C. for 4-8 days, after which 100 μM BAPTA-AM was added three hours before recording.
Two-electrode voltage clamp electrophysiology was used to determine agonist concentration-current-response plots to estimate the potencies (EC50s) of the agonists. The oocytes were kept in a recording solution (100 mM NaCl, 2.5 mM KCl, 1 mM CaCl2.2H2O, and 5 mM HEPES, pH 7.3) and clamped to −60 mV during recording.
Inward current signals in the oocytes were induced by the addition of chemicals that acted as agonists opening the nicotinic ion-channel receptors. […] An Axoclamp 2B amplifier (Molecular Devices, Sunnyvale, Calif.) was used to record the currents that were acquired with Clampex 9.2 software (Molecular Devices) and analyzed using GraphPad Prism 5.0 (Graphpad Software, Inc., La Jolla, Calif.).
Recording solution was then used to wash out the drug from the oocyte for 3 min prior to application of the next chemical perfusion.
Nicotine derivatives that elicited inward currents at 100 μM were classified as agonists. Increasing concentrations of each nicotine derivative were applied for 10 sec with 3-min wash intervals to determine the dose-response relationship of each agonist. […] Peak responses were recorded and normalized. […] The EC50 and Imax of each agonist were compared using the unpaired student's t-test. P<0.05 was used to evaluate the statistical difference.

[3] = inhibition of ACh response, N=5
[4] = agonist dose-response, mean±S.E.M., N=5
[5] = inward currents at 100 μM classify as agonist
[6] = agonist, currents normalized to 100 μM ACh, oocytes clamped to −60 mV, mean±S.E.M., N=5

Compound	Hill slope (nH) (Asu-ACR-16 [2]; [4])	Emax (Asu-ACR-16 [2]) [%]	maximum response (Imax) (Asu-ACR-16 [2]; mean±S.E.M., N=5) [%]	other results
NC(=O)c1ccc(N)nc1 [6-AN, 6-aminonicotinamide]	10.10 ± 0.15	6.29 ± 0.62		IC50 (Asu-ACR-16 [1]): 2000 ± 410 nM; inhibition of ACh response (in words) (Asu-ACR-16 [1]; 100 μM derivative co-applied with 100 μM ACh): most potent inhibitor; mode of antagonism (in words) (Asu-ACR-16 [1]; ACh dose-response in presence of 1 μM 6-AN, concentration- and voltage-dependent inhibition): non-competitive antagonist; Imax (Asu-ACR-16 [1]; [3]): 94.88±1.49%; nH (Asu-ACR-16 [1]; [3]): 1.02±0.05; agonist activity (in words) (Asu-ACR-16 [2]; [5]): little agonist activity
C#Cc1cncc([C@@H]2CCCCN2)c1 [(S)-5-ethynyl-anabasine]	1.81 ± 0.24		79.33 ± 3.75	EC50 lower (more potent) than (S)-nicotine (Asu-ACR-16 [2]; ratio of EC50 values): 44 times
CN1CCC[C@H]1c1cccnc1 [(S)-nicotine, (−)-nicotine hydrogen tartrate salt]		82.4 ± 2.52		EC50 (Asu-ACR-16 [2]): 6210 ± 560 nM
CC(=O)OCC[N+](C)(C)C.[Cl-] [ACh, acetylcholine chloride]	2.93 ± 0.13			
c1cncc([C@@H]2CCCCN2)c1 [(S)-anabasine]	2.26 ± 0.20		84.82 ± 4.20	
C#Cc1cncc([C@@H]2CCCN2C)c1 [(S)-SIB 1508Y, SIB 1508Y maleate]	0.94 ± 0.04		100.1 ± 4.36	EC50 (Asu-ACR-16 [2]; [6]): 370 ± 100 nM
Brc1cncc([C@@H]2CCCCN2)c1 [(S)-5-bromo-anabasine, (S)-5-bromoanabasine]	4.19 ± 1.58		80.69 ± 2.87	
CN1CCC[C@H]1c1ccc[n+](C)c1.[I-] [(S)-1-methyl-nicotinium, (S)-1-methylnicotinium iodide]				agonist activity (in words) (Asu-ACR-16 [2]; [5]): did not act as agonists
c1cncc([C@@H]2CCCN2)c1 [nornicotine, (+)-nornicotine]	3.25 ± 0.49	62.6 ± 3.42		
CN1C(=O)CC[C@H]1c1cccnc1 [(S)-cotinine, (−)-cotinine]				agonist activity (in words) (Asu-ACR-16 [2]; [5]): did not act as agonists
Cc1cncc(C2CCCN2C)c1 (stereo not shown) [5-methyl-nicotine, 5-methylnicotine]	2.09 ± 0.14	76 ± 1.22		EC50 (Asu-ACR-16 [2]; [6]): 990 ± 170 nM
CN1CCCCC1c1cccnc1 (stereo not shown) [N-methyl-anabasine, N-methyl anabasine]				agonist activity (in words) (Asu-ACR-16 [2]; [5]): inactive; also recorded: did not act as agonists
Cc1ccc(C2CCCN2C)cn1 (stereo not shown) [6-methyl-nicotine, 6-methylnicotine]	3.25 ± 0.25	69.8 ± 1.56		
CN1CCC[C@H]1c1cncc(Br)c1 [(S)-5-bromo-nicotine, (S)-5-bromonicotine]	2.46 ± 0.21	69.7 ± 3.28		EC50 (Asu-ACR-16 [2]; [6]): 2040 ± 120 nM
CCN1CCCC1c1cccnc1 (stereo not shown) [homonicotine]	6.78 ± 2.50		22.01 ± 1.39	
CN1CCC[C@H]1c1cncc(C=O)c1 [(S)-nicotine-5-carboxaldehyde]	8.61 ± 4.04		62.20 ± 6.80	EC50 (Asu-ACR-16 [2]; [6]): 11500 ± 630 nM
C[N+]1(C)CCC[C@H]1c1cccnc1.[I-] [(S)-1′-methyl-nicotinium, (S)-1′-methylnicotinium iodide]	3.52 ± 0.26		93.38 ± 5.25	
CN1CCCC1c1cccnc1.O=C(O)C(O)C(O)C(=O)O (single isomer, unassigned; (-)) [(S)-nicotine, (−)-nicotine hydrogen tartrate salt]				Hill slope (nH) (Asu-ACR-16 [2]): 3.39 ± 0.36; agonist activity (in words) (Asu-ACR-16 [2]): potent agonist
